Values quoted from earlier work, collected in patent publication US9316644B2, “Method for establishing the sensitivity of tumours to capecitabin and test kit” (SANOXSYS GMBH, priority 2006, dated 2016).
Read-outs that look alike come from different tables or passages of the source.

Key:
[1] = test system: progressive mamma carcinoma; settings: of 25 patients; continuous low-dose 5-FU
[2] = test system: metastatic mamma carcinomas; settings: for median reaction duration: in vivo; for ORR (overall response): second line after anthracycline failure
[3] = test system: metastatic mamma carcinomas
[4] = test system: metastatic mamma carcinoma
[5] = 68 patients evaluable for effectivity

**Q.** With `O=c1[nH]cc(F)c(=O)[nH]1` [5-FU, 5-Fluorouracil] as the compound, how does the “patients achieving an objective reaction” value [1] read?
**A.** 8 patients

**Q.** For `CC(=O)O[C@H]1C(=O)[C@@]2(C)[C@H]([C@H](OC(=O)c3ccccc3)[C@]3(O)C[C@H](OC(=O)[C@H](O)[C@@H](NC(=O)c4ccccc4)c4ccccc4)C(C)=C1C3(C)C)[C@]1(OC(C)=O)CO[C@@H]1C[C@@H]2O` [Paclitaxel], which median reaction duration [2] is on record?
**A.** 9.4 months

**Q.** What about the “ORR (overall response)” value [2] of the same compound?
**A.** 21%

**Q.** For `CCCCCOC(=O)Nc1nc(=O)n(C2OC(C)C(O)C2O)cc1F` (centres unmarked) [capecitabine, Pentyl[1-(3,4-dihydroxy-5-methyl-tetrahydrofuran-2-yl)-5-fluoro-2-oxo-1H-pyrimidin-4-yl]aminomethanoat], which mean remission duration ([3]; human, in vivo) is on record?
**A.** 241 days

**Q.** What about the median survival ([3]; human, in vivo) of the same compound?
**A.** 384 days

**Q.** What about the “median time until progression” value ([3]; human, in vivo) of the same compound?
**A.** 93 days

**Q.** And the “patients with stable sequence of the illness” value ([3]; human, in vivo)?
**A.** 43%

**Q.** What about the therapy-induced fatalities ([3]; human, in vivo) of the same compound?
**A.** did not occur

**Q.** And the objective remission rate ([3]; intend to treat evaluation, 162 patients, 2510 mg/m^2/day for 14 days, 7-day break)?
**A.** 20%

**Q.** And the tolerability ([3]; no pre-medication or primary prophylaxis necessary)?
**A.** excellent tolerability profile

**Q.** And the “patients whose pain was reduced by more than 50%” value ([3]; of 51 patients with pain figure above 20 mm on analogue pain scale at start)?
**A.** 47%

**Q.** And the reaction rate ([3]; sub-group of 42 anthracycline and paclitaxel therapy refractory patients)?
**A.** 29%

**Q.** And the median reaction duration [2]?
**A.** 9.4 months

**Q.** And the “ORR (overall response)” value [2]?
**A.** 36%

**Q.** What about the complete remission [4, 5] of the same compound?
**A.** 3%

**Q.** And the partial remission [4, 5]?
**A.** 22%

**Q.** What about the diarrhea ([4]; CTC degree 1 and 2) of the same compound?
**A.** 21%

**Q.** And the lethargy ([4]; CTC degree 1 and 2)?
**A.** 18%

**Q.** And the nausea and vomiting ([4]; CTC degree 1 and 2)?
**A.** 38%

**Q.** And the “hand and foot syndrome” value ([4]; CTC degree 1 and 2, 1250 mg/m^2 twice a day for 14 days, 7-day break, 77 patients evaluable)?
**A.** 40%

**Q.** What about the “hand and foot toxicity” value ([4]; degree 3) of the same compound?
**A.** 14%

**Q.** And the “stabilization of the disease” value ([4]; in vivo)?
**A.** 47%

**Q.** And the tumor control ([4]; patients with intensive previous treatment)?
**A.** 72%

**Q.** What about the combination effect (with CPT-11, Tomudex, Mitomycin C or Cyclophosphamide) of the same compound?
**A.** additive

**Q.** And the combination effect (with Paclitaxel or Docetaxel)?
**A.** supra-additive

**Q.** And the combination effect (with a radiation therapy)?
**A.** Synergetic effects
